Results reported in patent US8435978B2, “Substituted sulfonamide compounds” (Gruenenthal GmbH, priority 2006, dated 2013).
Where a name gives a salt, the structure may show the parent alone.

What was measured:
human B1R receptor = target: T1, human B1R receptor (Homo sapiens, UniProt P46663); experiment: Functional study on the bradykinin receptor 1 (B1R), FLIPR Ca2+ assay, hB1R cells; format: cell-based; details: CHO-K1, test substance 10 μM, agonist Lys-Des-Arg9-bradykinin 0.5 nM, % inhibition compared with the maximum achievable inhibition, read-out: B1R Antagonism, human [10 μM] % Inhibition
T1 construct: host or cells: CHO K1 cells (Chinese hamster ovary), stably transfected
T1 sequence (P46663 1-353): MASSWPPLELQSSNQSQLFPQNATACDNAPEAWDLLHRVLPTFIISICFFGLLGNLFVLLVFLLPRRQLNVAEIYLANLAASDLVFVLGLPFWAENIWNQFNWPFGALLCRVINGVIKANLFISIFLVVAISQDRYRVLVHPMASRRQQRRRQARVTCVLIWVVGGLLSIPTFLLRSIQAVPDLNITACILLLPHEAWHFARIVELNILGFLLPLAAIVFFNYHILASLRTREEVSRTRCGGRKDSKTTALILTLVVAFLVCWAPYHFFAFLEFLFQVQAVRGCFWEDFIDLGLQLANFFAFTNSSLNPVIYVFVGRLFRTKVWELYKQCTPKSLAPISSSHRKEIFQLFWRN
Outline: (§1)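 CHO K1 cells stably expressing human or rat B1R, Fluo-4-loaded; test compound 10 μM added first (activation % vs agonist), then after 10 min 0.5 nM Lys-Des-Arg9-bradykinin (human) or 100 nM Des-Arg9-bradykinin (rat). Ca2+ peak fluorescence by FLIPR; % inhibition relative to maximum achievable inhibition.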

B1R receptor of the rat = target: T2, B1R receptor of the rat (Rattus norvegicus, UniProt P97583); experiment: Functional study on the bradykinin receptor 1 (B1R), FLIPR Ca2+ assay, rB1R cells; format: cell-based; details: CHO-K1, test substance 10 μM, agonist Des-Arg9-bradykinin 100 nM, % inhibition compared with the maximum achievable inhibition, read-out: B1R Antagonism, rat [10 μM] % Inhibition
T2 construct: host or cells: CHO K1 cells (Chinese hamster ovary), stably transfected
T2 sequence (P97583 1-337): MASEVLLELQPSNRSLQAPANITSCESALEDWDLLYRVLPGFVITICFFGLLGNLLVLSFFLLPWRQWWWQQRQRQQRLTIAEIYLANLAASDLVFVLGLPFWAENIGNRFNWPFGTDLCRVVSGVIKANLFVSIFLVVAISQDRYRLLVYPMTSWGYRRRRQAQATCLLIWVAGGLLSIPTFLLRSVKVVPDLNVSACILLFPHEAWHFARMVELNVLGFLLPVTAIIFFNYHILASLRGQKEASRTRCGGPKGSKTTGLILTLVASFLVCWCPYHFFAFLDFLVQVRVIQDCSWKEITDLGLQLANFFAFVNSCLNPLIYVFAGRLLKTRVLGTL
Outline: as §1

inhibition at 10 µM (human B1R receptor) | inhibition at 10 µM (B1R receptor of the rat) | SMILES
100% | 90.8% | Cc1cccc(Cl)c1S(=O)(=O)N1CCC[C@@H]1COCC(=O)N1CCN(C2CCN(C)CC2)CC1 [Example 152, (R)-2-((1-(2-chloro-6-methylphenylsulfonyl)pyrrolidin-2-yl)methoxy)-1-(4-(1-methylpiperidin-4-yl)piperazin-1-yl)ethanone dihydrochloride]
83.2% | 84.4% | CN1CCC(N2CCN(C(=O)COCC3CCCCN3S(=O)(=O)c3ccc(Cl)c4nonc34)CC2)CC1 (stereo not shown) [Example 154, 2-((1-(7-chlorobenzo[c][1,2,5]oxadiazol-4-ylsulfonyl)piperidin-2-yl)methoxy)-1-(4-(1-methylpiperidin-4-yl)piperazin-1-yl)ethanone]
108% | 103% | CN1CCC(N2CCN(C(=O)COCC3CCCCN3S(=O)(=O)c3cc(Cl)c(Cl)cc3Cl)CC2)CC1 (stereo not shown) [Example 156, 1-(4-(1-methylpiperidin-4-yl)piperazin-1-yl)-2-((1-(2,4,5-trichlorophenylsulfonyl)piperidin-2-yl)methoxy)ethanone dihydrochloride]
99.2% | 101% | Cc1ccccc1S(=O)(=O)N1CCCCC1COCC(=O)N1CCN(C2CCN(C)CC2)CC1 (stereo not shown) [Example 159, 1-(4-(1-methylpiperidin-4-yl)piperazin-1-yl)-2-((1-(o-tolylsulfonyl)piperidin-2-yl)methoxy)ethanone dihydrochloride]
99% | 99% | CN1CCC(N2CCN(C(=O)COCC3CCCCN3S(=O)(=O)c3c(Cl)cc(Br)cc3Cl)CC2)CC1 (stereo not shown) [Example 160, 2-((1-(4-bromo-2,6-dichlorophenylsulfonyl)piperidin-2-yl)methoxy)-1-(4-(1-methylpiperidin-4-yl)piperazin-1-yl)ethanone dihydrochloride]
99.5% | 99.5% | Cc1cccc(Cl)c1S(=O)(=O)N1CCC[C@H]1COCC(=O)N1CCN(C2CCN(C)CC2)CC1 [Example 162, (S)-2-((1-(2-chloro-6-methylphenylsulfonyl)pyrrolidin-2-yl)methoxy)-1-(4-(1-methylpiperidin-4-yl)piperazin-1-yl)ethanone dihydrochloride]
102% | 101% | COc1cc(C)c(S(=O)(=O)N2CCCC[C@H]2COCC(=O)N2CCN(C3CCN(C)CC3)CC2)c(C)c1 [Example 167, (S)-2-((1-(4-methoxy-2,6-dimethylphenylsulfonyl)piperidin-2-yl)methoxy)-1-(4-(1-methylpiperidin-4-yl)piperazin-1-yl)ethanone]
100% | 101% | Cc1cc(F)cc(C)c1S(=O)(=O)N1CCCCC1COCC(=O)N1CCN(C2CCN(C)CC2)CC1 (stereo not shown) [Example 169, 2-((1-(4-fluoro-2,6-dimethylphenylsulfonyl)piperidin-2-yl)methoxy)-1-(4-(1-methylpiperidin-4-yl)piperazin-1-yl)ethanone dihydrochloride]
101% | 97.8% | CN1CCC(N2CCN(C(=O)COCC3CCCCN3S(=O)(=O)c3cc(Cl)sc3Cl)CC2)CC1 (stereo not shown) [Example 170, 2-((1-(2,5-dichlorothiophen-3-ylsulfonyl)piperidin-2-yl)methoxy)-1-(4-(1-methylpiperidin-4-yl)piperazin-1-yl)ethanone dihydrochloride]
101% | 85.2% | Cc1cc(S(=O)(=O)N2CCCCC2COCC(=O)N2CCN(C3CCN(C)CC3)CC2)c(C)s1 (stereo not shown) [Example 172, 2-((1-(2,5-dimethylthiophen-3-ylsulfonyl)piperidin-2-yl)methoxy)-1-(4-(1-methylpiperidin-4-yl)piperazin-1-yl)ethanone]
101% | 101% | CN1CCC(N2CCN(C(=O)COCC3CCCCN3S(=O)(=O)c3cccc(Cl)c3Cl)CC2)CC1 (stereo not shown) [Example 173, 2-((1-(2,3-dichlorophenylsulfonyl)piperidin-2-yl)methoxy)-1-(4-(1-methylpiperidin-4-yl)piperazin-1-yl)ethanone dihydrochloride]

More lines, now with the values behind:

SMILES | inhibition at 10 µM (human B1R receptor) | inhibition at 10 µM (B1R receptor of the rat)
CN1CCC(N2CCN(C(=O)COCC3CCCCN3S(=O)(=O)c3cc(C(F)(F)F)ccc3C(F)(F)F)CC2)CC1 (stereo not shown) [Example 153, 2-((1-(2,5-bis(trifluoromethyl)phenylsulfonyl)piperidin-2-yl)methoxy)-1-(4-(1-methylpiperidin-4-yl)piperazin-1-yl)ethanone] | 81.6% | 40.6%
Cc1ccc(S(=O)(=O)N2CCCCC2COCC(=O)N2CCN(C3CCN(C)CC3)CC2)c2ccccc12 (stereo not shown) [Example 155, 2-((1-(4-methylnaphthalen-1-ylsulfonyl)piperidin-2-yl)methoxy)-1-(4-(1-methylpiperidin-4-yl)piperazin-1-yl)ethanone dihydrochloride] | 107% | 89.6%
Cc1ccc2ccccc2c1S(=O)(=O)N1CCCCC1COCC(=O)N1CCN(C2CCN(C)CC2)CC1 (stereo not shown) [Example 157, 2-((1-(2-methylnaphthalen-1-ylsulfonyl)piperidin-2-yl)methoxy)-1-(4-(1-methylpiperidin-4-yl)piperazin-1-yl)ethanone dihydrochloride] | 98.2% | 100%
CN1CCC(N2CCN(C(=O)COCC3CCCCN3S(=O)(=O)c3cccc4c(N(C)C)cccc34)CC2)CC1 (stereo not shown) [Example 158, 2-((1-(5-(dimethylamino)naphthalen-1-ylsulfonyl)piperidin-2-yl)methoxy)-1-(4-(1-methylpiperidin-4-yl)piperazin-1-yl)ethanone dihydrochloride] | 98.5% | 99.3%
Cc1cccc(Cl)c1S(=O)(=O)N1CCC[C@H]1COCC(=O)N1CCC(CCN2CCCC2)CC1 [Example 161, (S)-2-((1-(2-chloro-6-methylphenylsulfonyl)pyrrolidin-2-yl)methoxy)-1-(4-(2-(pyrrolidin-1-yl)ethyl)piperidin-1-yl)ethanone hydrochloride] | 98.5% | 99.2%
Cc1cccc(Cl)c1S(=O)(=O)N1CCC[C@H]1COCC(=O)N1CCN(CC2CCN(C)CC2)CC1 [Example 163, (S)-2-((1-(2-chloro-6-methylphenylsulfonyl)pyrrolidin-2-yl)methoxy)-1-(4-((1-methylpiperidin-4-yl)methyl)piperazin-1-yl)ethanone dihydrochloride] | 95% | 101%
COc1cc(C)c(S(=O)(=O)N2CCCCC2CCOCC(=O)N2CCN(C3CCN(C)CC3)CC2)c(C)c1 (stereo not shown) [Example 164, 2-(2-(1-(4-methoxy-2,6-dimethylphenylsulfonyl)piperidin-2-yl)ethoxy)-1-(4-(1-methylpiperidin-4-yl)piperazin-1-yl)ethanone] | 99.6% | 101%
COc1cc(C)c(S(=O)(=O)N2CCCCC2COCC(=O)N2CCC(Oc3cccnc3)CC2)c(C)c1 (stereo not shown) [Example 165, 2-((1-(4-methoxy-2,6-dimethylphenylsulfonyl)piperidin-2-yl)methoxy)-1-(4-(pyridin-3-yloxy)piperidin-1-yl)ethanone] | 97.1% | 96.8%
COc1cc(C)c(S(=O)(=O)N2CCCCC2COCC(=O)N2CCN(Cc3ccc4nccnc4c3)CC2)c(C)c1 (stereo not shown) [Example 166, 2-((1-(4-methoxy-2,6-dimethylphenylsulfonyl)piperidin-2-yl)methoxy)-1-(4-(quinoxalin-6-ylmethyl)piperazin-1-yl)ethanone] | 99.4% | 99.3%
COc1cc(C)c(S(=O)(=O)N2CCCCC2COCC(=O)N2CCN(c3ccc4c(N5CCCC5)ncnc4c3)CC2)c(C)c1 (stereo not shown) [Example 168, 2-((1-(4-methoxy-2,6-dimethylphenylsulfonyl)piperidin-2-yl)methoxy)-1-(4-(4-(pyrrolidin-1-yl)quinazolin-7-yl)piperazin-1-yl)ethanone] | 93.8% | 98.4%
CN1CCC(N2CCN(C(=O)COCC3CCCCN3S(=O)(=O)c3cc4ccccc4s3)CC2)CC1 (stereo not shown) [Example 171, 2-((1-(benzo[b]thiophen-2-ylsulfonyl)piperidin-2-yl)methoxy)-1-(4-(1-methylpiperidin-4-yl)piperazin-1-yl)ethanone] | 102% | 82.8%
COc1ccc(S(=O)(=O)N2CCCCC2COCC(=O)N2CCN(C3CCN(C)CC3)CC2)c2ccccc12 (stereo not shown) [Example 174, 2-((1-(4-methoxynaphthalen-1-ylsulfonyl)piperidin-2-yl)methoxy)-1-(4-(1-methylpiperidin-4-yl)piperazin-1-yl)ethanone dihydrochloride] | 101% | 98%
